Each structure is given as a SMILES string.

One test concerns Alternaria brassicae. As to the kind of experiment: In vivo preventive test on Alternaria brassicae (leaf spot on radish or cabbage). The following applies: 500 ppm of active ingredient, sprayed on young radish or cabbage plants 24 h before inoculation, evaluated 3 to 4 days after inoculation, read-out: efficacy. A digest of the protocol: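 Young radish or cabbage plants sprayed preventively with compound formulated in DMSO/acetone/Tween 80 and diluted in water; vehicle-treated plants as controls. Leaves inoculated by spraying an aqueous Alternaria brassicae spore suspension 24 h after treatment.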

The next test concerns Pyricularia oryzae. Description: microbe, parasite or virus in culture. The following applies: 120 h; for inhibition at 20 ppm: read-out: efficacy (inhibition of fungal growth), 20 ppm of active ingredient, liquid culture, 5 days incubation. Format: cell-based.
Test [1] relates to Colletotrichum lindemuthianum. Description: Colletotrichum lindemuthianum in vitro cell test. The format is cell-based. The following applies: 144 h, liquid culture, 6 days incubation, read-out: efficacy (inhibition of fungal growth); for inhibition at 20 ppm: 20 ppm of active ingredient. The method, boiled down:
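Inhibition of spore germination and mycelium growth, as absorbance relative to untreated wells, was read on day 6. Compounds from DMSO stocks were added to a spore suspension in glucose/peptone/yeast extract broth.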

A further test deals with Botrytis cinerea. As to the kind of experiment: In vivo preventive test on Botrytis cinerea (grey mould). The following applies: 500 ppm of active ingredient, sprayed on young gherkin or cabbage plants 24 h before inoculation, evaluated 4 to 5 days after inoculation, read-out: efficacy. A digest of the protocol:
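Young plants of gherkin or cabbage were sprayed with water-diluted compound formulated in DMSO/acetone/Tween 80, with solvent-only controls. Inoculation followed 24 h later by spraying an aqueous spore suspension of Botrytis cinerea onto leaves.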

The test system of a further test is Sphaerotheca fuliginea. Description: In vivo preventive test on Sphaerotheca fuliginea (powdery mildew on cucurbits). Particulars: Podosphaera fuliginea, 192 h; 500 ppm of active ingredient, sprayed on young gherkin plants 24 h before inoculation; evaluated 8 days after inoculation; read-out: efficacy. As to the method: B-3. […] The active ingredients were made soluble and homogenized in a mixture of Dimethyl sulfoxide/Acetone//Tween® 80 and then diluted in water to the desired concentration. The young plants of gherkin were treated by spraying the active ingredient prepared as described above. Control plants were treated only with an aqueous solution of Acetone/Dimethyl sulfoxide/Tween® 80. After 24 hours, the plants were contaminated by spraying the leaves with an aqueous suspension of Sphaerotheca fuliginea spores.

On to `FC(F)(F)c1cccc(Sc2cnc(Cl)cc2C2=NOC[C@@H](Cc3ccc(Cl)cc3Cl)N2)c1` (racemic) [Compound I-022], for which the pest or weed control at 500 ppm in the test with Alternaria brassicae fell in the range of 80 to 89%; in the test with Botrytis cinerea, 90 to 100%; in the test with Sphaerotheca fuliginea, 90 to 100%. The inhibition at 20 ppm in the test on Pyricularia oryzae lay within 80 to 89%; in test [1], 90 to 100%.
With `Cc1cccc(Sc2cnc3ccccc3c2C2=NOC[C@H](Cc3ccc(C)cc3C)N2)c1` (racemic) [Compound I-023], the pest or weed control at 500 ppm in the test on Alternaria brassicae and in the test on Botrytis cinerea was 90 to 100% throughout. Also, the inhibition at 20 ppm (with Pyricularia oryzae; in test [1]) was 90 to 100% each time.
Regarding `Cc1ccc(C[C@@H]2CON=C(c3c(Sc4cccc(C(F)(F)F)c4)nnc4ccccc34)N2)c(C)c1` (racemic) [Compound I-029], the pest or weed control at 500 ppm was in the range of 80 to 89% in the test on Alternaria brassicae and 90 to 100% in the test on Botrytis cinerea. Also, the inhibition at 20 ppm (in the test on Pyricularia oryzae; in test [1]) was 90 to 100% in each case.
In the case of `Cc1ccc(C[C@H]2CON=C(c3c(Sc4cccc(C(F)(F)F)c4)cnc4ccccc34)N2)c(C)c1` (racemic) [Compound I-030], the pest or weed control at 500 ppm with Alternaria brassicae is 70 to 79%; in the test with Botrytis cinerea, 90 to 100%. The inhibition at 20 ppm (with Pyricularia oryzae; in test [1]) was 90 to 100% in each case.
For the compound `Cc1ccc(C[C@@H]2CON=C(c3nc(C)ncc3Sc3cccc(Cl)c3)N2)c(C)c1` (racemic) [Compound I-031], the pest or weed control at 500 ppm with Alternaria brassicae, with Botrytis cinerea and in the test with Sphaerotheca fuliginea was 90 to 100% in each case. Besides, the inhibition at 20 ppm in test [1] was in the range of 90 to 100%.
Regarding `Cc1cccc(Sc2cnc(C)nc2C2=NOC[C@@H](Cc3ccc(C)cc3C)N2)c1` (racemic) [Compound I-032], the pest or weed control at 500 ppm with Alternaria brassicae, in the test with Botrytis cinerea and in the test with Sphaerotheca fuliginea was 90 to 100% in each case. Moreover, the figures for the inhibition at 20 ppm (with Pyricularia oryzae; in test [1]) were 70 to 79% and 90 to 100%, respectively.
Regarding `Cc1ccc(C[C@@H]2CON=C(c3nc(C)ncc3Sc3cccc(Cl)c3)N2)c(Cl)c1` (racemic) [Compound I-033], the pest or weed control at 500 ppm was 80 to 89% in the test on Alternaria brassicae, 90 to 100% with Botrytis cinerea and 90 to 100% in the test on Sphaerotheca fuliginea. In test [1], the inhibition at 20 ppm was in the range of 90 to 100%.
In the case of `Cc1cc([C@@H]2CON=C(c3c(Sc4cccc(Cl)c4)nnc(C)c3C)N2)c(C)s1` (racemic) [Compound I-100], the pest or weed control at 500 ppm with Alternaria brassicae and in the test on Botrytis cinerea was 90 to 100% in each case. The inhibition at 50 µM with Pyricularia oryzae (read-out: efficacy (inhibition of fungal growth), 50 μMol/l of active ingredient, liquid culture, 5 days incubation) fell in the range of 90 to 100%; in test [1] (50 μMol/l of active ingredient) it was 90 to 100%.

The values are drawn from patent publication US20250042886A1, “BIS(HETERO)ARYL THIOETHER OXADIAZINES AS FUNGICIDAL COMPOUNDS” (Bayer Aktiengesellschaft, priority 2021, published 2025).
